# Source: US20260373164A1, “4(RS)-4-F4-NEUROPROSTANE DERIVATIVES (4-F4T-NEUROP) AND THEIR USE IN TREATING VENTILATOR INDUCED DIAPHRAGMATIC DYSFUNCTION AND OTHER DISEASES” (INSTITUT NATIONAL DE LA SANTÉ ET DE LA RECHERCHE MÉDICALE, priority 2022, published 2026)
# Entries after “also recorded” stand apart in the source; their conditions may differ.
# What was measured:
# [1] = system: mouse diaphragm (VIDD); assay: Diaphragm force-frequency relationship after 6 h of mechanical ventilation (murine model of VIDD); assay type: in vivo, C57/BL6 mice; details: for prevention of VIDD in murine model: general statement; for prevention of VIDD in murine model / protection against mechanical ventilation (force-frequency relationship): mice; for protection against mechanical ventilation (force-frequency relationship): IV
# Procedure: 35 adult male mice (10 to 12 weeks old, 25 to 30 g) C57/BL6 mice were separated into five groups. Three groups were intubated with a 22-gauge angio-catheter and mechanically ventilated for 6 consecutive hours using a volume-driven small-animal ventilator (Minivent®, Harvard Apparatus, Saint-Laurent, Canada). Tidal volume was established at […] body weight with a respiratory rate of 150 breaths/min, a positive end-expiratory pressure (PEEP) level from 2 to 4 cm H2O and a fraction of inspired oxygen of 0.21. Non-spontaneous ventilation was defined as a lack of diaphragm contractile activity attested by repetitive stereotypical deflections observed in the airway pressure curve.
# The mice were divided into two groups. The first group (control) received methanol, at the volume corresponding to the equivalent volume brought with 4F4t-NeuroP, intravenously (IV) infused over a 5-minute period, 20 minutes before start of MV. The second group of mice received 4F4t-NeuroP intravenously (IV) infused over a 5-minute period, 20 minutes before start of MV. The two groups were intubated and treated in an identical manner (see Matecki et al., 2016 for details^15).
# At the end of the protocol of MV, the entire diaphragm was surgically excised and mice were euthanized, by exsanguination. Isometric contractile properties were assessed as described previously in detail (Matecki et al., 2016^15). The excised diaphragm strip was mounted into jacketed tissue bath chambers filled with equilibrated and oxygenated Krebs solution. The muscles were supra-maximally stimulated using square wave pulses (Model S48; Grass Instruments, West Warwick, RI). The force-frequency relationship was determined by sequentially stimulating the muscles for 600 ms at 10, 20, 30, 50, 60, 80, 100 and 120 Hz with 1 minute between each stimulation train. After measurement of contractile properties, muscles were measured at Lo (the length at which the muscle produced maximal isometric tension), dried and weighted. For comparative purposes, diaphragmatic force production was normalized for total muscle strip cross-sectional area and expressed in N·cm^−2. The total muscle strip cross-sectional area was determined by dividing muscle weight by its length and tissue density (1.056 g/cm^3).
# Mice were anesthetized and mechanically ventilated for 6 hours. Mice were randomized to receive or not at the beginning of the ventilation a single IV injection of 4F4t-NeuroP at concentrations ranging from 0.01-100 μM to build a dose-response curve of the force-frequency relationship in order to define the optimal concentration.
# As for 4F4t-NeuroP, VB558 was injected intravenously into the mouse at a concentration of 1 and 10 μM before ventilating the mice for 6 hours.
# [2] = system: calstabin1/RyR1 complex; assay: RyR1 biochemical analysis (immunoprecipitation): oxidation, phosphorylation, calstabin1 interaction; assay type: in vivo, mouse; details: for RyR function: associated with VIDD prevention in the murine and porcine models; for RyR oxidation, and phosphorylation: statement in discussion for both compounds
# Procedure: Muscle biopsies were homogenized in 150 μl of buffer containing 5% SDS, 5% beta-mercaptoethanol, 10% glycerol, 10 mM EDTA and 50 mM Tris/HCl buffer (pH=8.0). Each sample was immediately denatured at 90 °C for 4 min. After centrifugation (5000 rpm) at 4 °C, supernatant protein concentrations were measured in duplicate using the BCA protein assay, equilibrated at the same concentration by dilution with loading buffer and aliquoted at 2 μg/μl. RyR1 was immunoprecipitated from 250 μg of homogenate using an anti-RyR antibody (4 μg RyR1-1327) in 0.5 ml of a modified RIPA buffer (50 mM Tris-HCl pH 7.4, 0.9% NaCl, 5.0 mM NaF, 1.0 mM Na3VO4, 1% Triton-X100, and protease inhibitors) for 1 hr at 4 °C. The immune complexes were incubated with protein A Sepharose beads (Amersham Pharmacia) at 4 °C for 1 hr and the beads were washed three times with buffer. Proteins were separated on SDS-PAGE gels (4-20% gradient) and transferred onto nitrocellulose membranes for 2 hr at 200 mA (SemiDry transfer blot, Bio-Rad). To prevent non-specific antibody binding, the membranes were incubated with blocking solution (LICOR Biosciences) and washed with Tris-buffered saline with 0.1% Tween-20.
# Blots were respectively incubated with primary antibody to RyR1 (RyR1-1327, an affinity-purified rabbit polyclonal antibody raised against a KLH-conjugated peptide with the amino acid sequence CAEPDTDYENLRRS, corresponding to residues 1327-1339 of mouse skeletal RyR1, with an additional cysteine residue added to the amino terminus), and affinity purified with the unconjugated peptide. The inventors also used antibody to calstabin1 (1:2500 in blocking buffer, LICOR Biosciences); phospho-epitope-specific antibody to human RyR2 phosphorylated on Ser-2808 (1:5,000), which detects PKA-phosphorylated mouse RyR1 (on Ser-2844) and RyR2 (on Ser-2808); antibody to S-nitrosylated cysteine residues (1:1000, Sigma). To determine RyR1 oxidation, the immunoprecipitate was treated with 2, 4-dinitrophenyl hydrazine, and the derivatized carbonyls were detected using an OxyBlot protein oxidation detection Kit (catalog S7150, Chemicon International Inc.). After three washes, membranes were incubated with infrared-labeled secondary antibodies. Control samples were analyzed on each gel for normalization and total levels of RyR1 were not different between groups.
# Diaphragm samples from the above experiments were frozen and solubilized to further investigate the biochemical properties of the RyR1 macromolecular complex.
SMILES,prevention of VIDD in murine model [1],"prevention of VIDD / diaphragm weakness (force-frequency relationship) ([1]; single IV injection of 4F4t-NeuroP 0.01-100 μM, 6 h MV)","concentration giving maximal effect in VIDD prevention ([1]; single IV injection, dose response 0.01-100 μM, 6 h MV, maximal force at 120 Hz)",RyR function [2],"biochemical signature of leaky RyR1 (oxidation, ser2844 phosphorylation, calstabin1 depletion) ([2]; mouse diaphragm after 6 h MV, 4F4t-NeuroP IV)","calstabin1/RyR1 complex ([2]; mouse diaphragm after 6 h MV, calstabin1/RyR1 interaction)","RyR oxidation, and phosphorylation [2]","protection against mechanical ventilation (force-frequency relationship) ([1]; VB558 1 μM, 6 h MV)","protection against mechanical ventilation (force-frequency relationship) ([1]; VB558 10 μM, 6 h MV)"
"CC/C=C\C/C=C\C/C=C\C[C@@H]1[C@H](/C=C/C(O)CCC(=O)O)[C@@H](O)C[C@H]1O (mixture of isomers) [Compound 4F4t-NeuroP, 4(RS)-4-F4t-Neuroprostane]",prevent with a high efficiency VIDD,prevents diaphragm weakness induced after 6 h of mechanical ventilation; also recorded: full prevention of VIDD,about 0.3 μM,normalization of RyR function,this post-translational remodeling was prevented; also recorded: fully prevented,Stabilizes the Complex Calstabin1/RyR1,"prevent RyR oxidation, and phosphorylation",,
"CC/C=C\C[C@@H]1[C@H](/C=C/C(O)CCC(=O)O)[C@@H](O)C[C@H]1O (mixture of isomers) [VB558, (E)-6-((1S,2R,3R,5S)-3,5-dihydroxy-2-((Z)-pent-2-en-1-yl)cyclopentyl)-4-hydroxyhex-5-enoic Acid]",prevents VIDD; also recorded: prevent with a high efficiency VIDD,,,normalization of RyR function,,,"prevent RyR oxidation, and phosphorylation",significant protection against mechanical ventilation in a range similar to that was obtained with 4F4t-NeuroP,significant protection against mechanical ventilation in a range similar to that was obtained with 4F4t-NeuroP
